# Experimental data taken from publication PMC3763546, “Structural insight into negative DNA supercoiling by DNA gyrase, a bacterial type 2A DNA topoisomerase” (Nucleic Acids Research, 2013).
# Biological target: T1, GyrBA-fus (full-length T. thermophilus DNA gyrase GyrB-GyrA fusion) (Thermus thermophilus, UniProt Q5SHZ4+Q5SIL4)
# T1 construct: full-length GyrB fused at its C-terminus to the N-terminus of full-length GyrA by a G-D-L linker; N-terminal His10 tag with PreScission site; E. coli BL21(DE3); dimer (A2B2 equivalent) of 320377 Da
# Assay: native ESI mass spectrometry
# Assay type: binding
# Settings: 200 mM ammonium acetate pH 7.5; two ADPNP per fusion dimer; ATPase domain (GyrB) site; also in the holoenzyme cryo-EM sample (16.9 Å)
structure (smiles),measurement,value
Nc1ncnc2c1ncn2[C@@H]1O[C@H](COP(=O)(O)OP(=O)(O)NP(=O)(O)O)[C@@H](O)[C@H]1O [ADPNP],native ESI mass spectrometry,showing the addition of two ADPNP molecules per GyrBA-fus dimer
